Active and inactive are the calls of the source. The calls are words filed in the database; no cut-off is given here.
What was measured:
[1] = system: BaF3; assay: In vivo inhibition of Trk signalling in NOD-SCID mouse allografted with mouse BaF3 cells expressing TEL fused TrkC G623R mutant assessed as reduction in p-Erk level at 5 to 20 mg/kg, iv qd measured after 10 days by IHC staining based analysis; assay type: functional, organism-based; conditions: dose 5-20 mg/kg, time 10.0 day
[2] = Tmax in Sprague-Dawley rat at 10 mg/kg, po measured up to 24 hrs by HPLC method; assay type: ADME, organism-based; conditions: in vivo
[3] = system: BaF3; assay: In vivo inhibition of Trk signalling in NOD-SCID mouse allografted with mouse BaF3 cells expressing TEL fused TrkC G623R mutant assessed as reduction in p-Akt level at 5 to 20 mg/kg, iv qd measured after 10 days by IHC staining based analysis; assay type: functional, organism-based; conditions: dose 5-20 mg/kg, time 10.0 day
[4] = system: BaF3; assay: Antitumour activity against larotrectinib-resistant mouse BaF3 cells expressing TEL fused TrkC G623R mutant allografted in NOD-SCID mouse assessed as reduction in tumor growth at 10 mg/kg/day, iv qd measured every 2 or 3 days for 10 days; assay type: functional, organism-based; conditions: time 10.0 day
[5] = system: BaF3; assay: cells; conditions: Mus musculus, BaF3, 72 h
Description: Cytotoxicity against mouse BaF3 cells expressing CD74 fused TrkA assessed as inhibition of cell growth incubated for 3 days by CCK-8 assay

[6] = system: BaF3; assay: cells; conditions: Mus musculus, BaF3, 72 h; remark: listed apart in the source
Description: Cytotoxicity against mouse BaF3 cells expressing TEL fused TrkC G623R assessed as inhibition of cell growth incubated for 3 days by CCK-8 assay

[7] = AUC(0 to t) in Sprague-Dawley rat at 5 mg/kg, iv measured up to 24 hrs by HPLC method; assay type: ADME, organism-based; set-up: route intravenous, dose 5 mg/kg, time <=24; conditions: in vivo
[8] = system: BaF3; assay: Inhibition of AKT phosphorylation in mouse BaF3 cells expressing CD74 fused TrkA incubated for 6 hrs by Western blot analysis; assay type: cell-based; conditions: dose 3-300 nM
[9] = in vitro; conditions: mouse, BaF3 cells
Description: Cytotoxicity against mouse BaF3 assessed as inhibition of cell growth incubated for 3 days by CCK-8 assay

[10] = Toxicity in NOD-SCID mouse assessed as histological changes in heart at 5 to 20 mg/kg, iv measured after 10 days by H and E staining based microscopic analysis; assay type: organism-based; conditions: in vivo, 240 h, dose 5-20 mg/kg, time 10 day
[11] = system: BaF3; assay: Downregulation of TrkA protein expression in mouse BaF3 cells expressing TEL fused TrkA incubated for 6 hrs by Western blot analysis; assay type: functional, cell-based
[12] = cells; conditions: Homo sapiens, KM12-Luc, 72 h
Description: Cytotoxicity against human KM12-Luc cells expressing TPM3 fused TrkA assessed as inhibition of cell growth incubated for 3 days by CCK-8 assay

[13] = system: BaF3; assay: Cytotoxicity against mouse BaF3 cells expressing LMNA fused TrkA F589L mutant assessed as inhibition of cell growth incubated for 3 days by CCK-8 assay; assay type: functional, cell-based; conditions: BaF3, 72 h
[14] = system: BaF3; assay: Inhibition of ERK phosphorylation in mouse BaF3 cells expressing TEL fused TrkC G623R mutant incubated for 6 hrs by Western blot analysis; assay type: cell-based; conditions: dose 3-300 nM
[15] = target: Serine/threonine-protein kinase AKT (Homo sapiens) (UniProt P31751+Q9Y243+P31749); assay: Inhibition of AKT phosphorylation in human KM12-luc cells incubated for 6 hrs by Western blot analysis; assay type: cell-based; conditions: dose 3-300 nM
Chain of Serine/threonine-protein kinase AKT (Homo sapiens) (P31749 whole entry, looked up, the tested form may be a part): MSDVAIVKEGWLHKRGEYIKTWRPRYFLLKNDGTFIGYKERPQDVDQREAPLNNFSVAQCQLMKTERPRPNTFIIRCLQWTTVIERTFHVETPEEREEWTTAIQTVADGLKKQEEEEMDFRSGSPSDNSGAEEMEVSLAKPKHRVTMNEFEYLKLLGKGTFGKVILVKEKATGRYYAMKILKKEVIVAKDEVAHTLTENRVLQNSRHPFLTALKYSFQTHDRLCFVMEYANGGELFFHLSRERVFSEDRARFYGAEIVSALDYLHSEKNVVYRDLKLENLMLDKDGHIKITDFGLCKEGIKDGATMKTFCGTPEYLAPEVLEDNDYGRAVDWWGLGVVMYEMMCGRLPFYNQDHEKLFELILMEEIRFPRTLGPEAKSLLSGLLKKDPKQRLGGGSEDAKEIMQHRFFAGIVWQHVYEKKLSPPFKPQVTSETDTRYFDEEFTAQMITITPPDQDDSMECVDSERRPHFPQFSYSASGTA
Chain of Serine/threonine-protein kinase AKT (Homo sapiens) (P31751 whole entry, looked up, the tested form may be a part): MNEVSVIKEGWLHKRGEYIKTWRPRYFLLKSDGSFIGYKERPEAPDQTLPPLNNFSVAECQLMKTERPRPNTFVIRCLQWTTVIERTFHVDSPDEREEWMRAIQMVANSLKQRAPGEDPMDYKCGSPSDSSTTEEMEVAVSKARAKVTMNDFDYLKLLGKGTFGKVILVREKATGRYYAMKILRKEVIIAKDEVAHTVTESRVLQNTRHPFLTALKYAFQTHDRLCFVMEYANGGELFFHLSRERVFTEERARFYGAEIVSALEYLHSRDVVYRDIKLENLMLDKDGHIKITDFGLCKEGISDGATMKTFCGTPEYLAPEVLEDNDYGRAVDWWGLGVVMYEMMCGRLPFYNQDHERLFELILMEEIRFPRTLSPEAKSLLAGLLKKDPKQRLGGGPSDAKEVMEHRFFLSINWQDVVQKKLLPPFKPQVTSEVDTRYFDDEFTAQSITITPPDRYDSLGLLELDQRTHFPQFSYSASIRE
Chain of Serine/threonine-protein kinase AKT (Homo sapiens) (Q9Y243 whole entry, looked up, the tested form may be a part): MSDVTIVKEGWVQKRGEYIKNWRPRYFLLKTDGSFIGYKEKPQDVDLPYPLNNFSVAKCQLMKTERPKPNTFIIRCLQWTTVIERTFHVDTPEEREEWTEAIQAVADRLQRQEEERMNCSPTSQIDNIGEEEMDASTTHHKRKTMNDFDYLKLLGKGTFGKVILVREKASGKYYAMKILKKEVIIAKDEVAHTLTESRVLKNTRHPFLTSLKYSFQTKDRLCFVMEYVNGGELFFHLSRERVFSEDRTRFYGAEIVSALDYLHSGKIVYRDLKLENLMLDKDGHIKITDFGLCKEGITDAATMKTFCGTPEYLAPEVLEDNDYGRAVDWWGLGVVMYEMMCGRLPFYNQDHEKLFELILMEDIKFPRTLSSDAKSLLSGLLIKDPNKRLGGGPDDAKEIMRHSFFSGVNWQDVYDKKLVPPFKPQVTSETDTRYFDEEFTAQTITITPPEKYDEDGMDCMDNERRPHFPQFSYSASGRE

[16] = system: BaF3; assay: Antitumour activity against mouse BaF3 cells expressing TEL fused TrkA allografted in NOD-SCID mouse assessed as reduction in tumor volume at 20 mg/kg, iv and measured every 2 or 3 days for 10 days; assay type: functional, organism-based; conditions: time 10.0 day
[17] = system: BaF3; assay: In vivo inhibition of Trk signalling in NOD-SCID mouse allografted with mouse BaF3 cells expressing TEL fused TrkC G623R mutant assessed as reduction in p-Trk level at 5 to 20 mg/kg, iv qd measured after 10 days by IHC staining based analysis; assay type: functional, organism-based; conditions: dose 5-20 mg/kg, time 10.0 day
[18] = Cmax in Sprague-Dawley rat at 5 mg/kg, iv measured up to 24 hrs by HPLC method; assay type: ADME, organism-based; set-up: route intravenous, dose 5 mg/kg, time <=24; conditions: in vivo
[19] = Half life in Sprague-Dawley rat at 5 mg/kg, iv measured up to 24 hrs by HPLC method; assay type: ADME, organism-based; conditions: in vivo
[20] = Toxicity in NOD-SCID mouse allografted with larotrectinib-resistant mouse BaF3 cells expressing TEL fused TrkC G623R mutant assessed as body weight loss at 5 to 20 mg/kg, iv measured every 2 or 3 days for 10 days; assay type: organism-based; conditions: in vivo, 240 h, dose 5-20 mg/kg, time 10 day
[21] = Inhibition of TrkA G667S mutant (unknown origin) by radiometric assay; set-up: species or system Homo sapiens
[22] = Clearance in Sprague-Dawley rat at 5 mg/kg, iv measured up to 24 hrs by HPLC method; assay type: ADME, organism-based; conditions: in vivo
[23] = Toxicity in NOD-SCID mouse assessed as histological changes in kidney at 5 to 20 mg/kg, iv measured after 10 days by H and E staining based microscopic analysis; assay type: organism-based; conditions: in vivo, 240 h, dose 5-20 mg/kg, time 10 day

Tmax [2]: 2 h
IC50 [5]: 0.5 nM
IC50 [6]: 15 nM
AUC(0-t) at 24 h [7]: 17900 ng·h/mL
IC50 at 3 days [9]: 9530 nM
IC50 [12]: 6 nM
inhibition [15]: Active
Cmax [18]: 21300 ng/mL
half-life [19]: 1.5 h
IC50 [21]: 5 nM
clearance [22]: 4.89 mL/min/kg
Compound: Cc1cc(NC(=O)Nc2cc(C(C)(C)C)nn2-c2ccc(Cl)cc2)ccc1Nc1ncnc2c1OC(C)(C)C(=O)N2
inhibition [1]: Active
inhibition [3]: Active
Activity [4]: Active
inhibition [8]: Active
Activity [10]: Non-Toxic
Activity [11]: Active
IC50 [13]: 7 nM
inhibition [14]: Active
Activity [16]: Active
inhibition [17]: Active
Activity [20]: Non-Toxic
Activity [23]: Non-Toxic

— ChEMBL document CHEMBL5042533, “Structural Optimization and Structure-Activity Relationship Studies of 6,6-Dimethyl-4-(phenylamino)-6H-pyrimido[5,4-b][1,4]oxazin-7(8H)-one Derivatives as A New Class of Potent Inhibitors of Pan-Trk and Their Drug-Resistant Mutants” (J Med Chem, 2022)
